Where a name gives a salt, the structure may show the parent alone.
Each compound was assayed on MTT (mouse pheochromocytoma) (assay: IC50 of cell viability (ATP content)). Settings: (24 or 48 h).
In short: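 After overnight culture at 37°C, 5% CO2 in white 1536-well plates, MTT mouse pheochromocytoma cells were given 23 nl of library compound in DMSO by pintool across 8 concentrations, spanning final 0.5 nM to 46 µM. Following 24 or 48 hrs, CellTiter-Glo luminescence was read after 15 minutes and normalised against positive-control (100%) and DMSO (0%) wells. A four-parameter logistic model provided the IC50.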
CN1N(C2=CC=CC=C2)C(=O)C(=C1/C)/NC(=O)C3=CN=CC=C3 [Nifenazone] was tested, and the “IC50 of cell viability” value was greater than 46 µM. With CCOC(=O)[N-]c1c[n+](N2CCOCC2)no1 [Molsidomine] the “IC50 of cell viability” value was greater than 46 µM. With CN1N(C(=O)/C=C1/C)C2=CC=CC=C2 [Phenazone] the “IC50 of cell viability” value was greater than 46 µM. For CC1(C)O[C@@H]2C[C@@H]3[C@@H]4C[C@@H](F)\C5=C\C(=O)CC[C@]5(C)[C@H]4[C@H](O)C[C@@]3(C)[C@]2(O1)C(=O)CO [Flurandrenolide], the “IC50 of cell viability” value was greater than 46 µM. ClC=C(Cl)Cl [Trichloroethylene] was tested, and the “IC50 of cell viability” value was greater than 46 µM. In the case of CC(=O)[C@@]1(O)CC[C@H]2[C@@H]3CC\C4=C\C(=O)CC[C@]4(C)[C@H]3CC[C@]12C [Hidroxiprogesterona], the “IC50 of cell viability” value is reported as greater than 46 µM. In the case of C=C(C)[C@H]1CN[C@H](C(=O)O)[C@H]1CC(=O)O [KAINIC ACID], the “IC50 of cell viability” value is reported as greater than 46 µM. In the case of Cc1nc[nH]c1CC1CCc2c(C)c3ccccc3n2C1=O (stereo unspecified) [Fabesetron], the “IC50 of cell viability” value is reported as greater than 46 µM. CC(C)[N+](C)(C)CC(O)COc1cccc2ccccc12 (stereo unspecified) [PRANOLII CHLORIDUM] was tested, and the “IC50 of cell viability” value was greater than 46 µM. CC(=O)Oc1cc(C(F)(F)F)ccc1C(=O)O [Triflusal] was tested, and the “IC50 of cell viability” value was greater than 46 µM. With CCCn1cnc2c1c(=O)n(CCCCC(C)=O)c(=O)n2C [PROPENTOFYLLINE] the “IC50 of cell viability” value was greater than 46 µM. With CN(C)CCOC1=Cc2ccccc2Sc2ccc(Cl)cc21 [Zotepine] the “IC50 of cell viability” value was greater than 46 µM. For CCCC(=O)Nc1ccc(OC[C@@H](O)CNC(C)C)c(C(C)=O)c1 [Acebutolol hydrochloride], the “IC50 of cell viability” value was greater than 46 µM. CN(C)C(=O)CCSC(SCCC(=O)[O-])c1cccc(/C=C/c2ccc3ccc(Cl)cc3n2)c1 (stereo unspecified) [MK-571] was tested, and the “IC50 of cell viability” value was greater than 46 µM. For CC(=O)Oc1cccc(O)c1 [RESORCINOL MONOACETATE], the “IC50 of cell viability” value was greater than 46 µM. With CC(C)(C(=O)c1cccnc1)c1cccnc1 [Metyrapone] the “IC50 of cell viability” value was greater than 46 µM. For CN(C)CCCSc1ccccc1NC(=O)/C=C/c1ccccc1 [CINANSERIN], the “IC50 of cell viability” value was greater than 46 µM. In the case of CC(=O)O[C@H]1CC[C@@]2(C)C(=CC[C@H]3[C@@H]4CC[C@H](C(C)=O)[C@@]4(C)CC[C@@H]32)C1 [3BETA-ACETOXY-5-PREGNENE-20-ONE], the “IC50 of cell viability” value is reported as greater than 46 µM. In the case of [Na+].CCCC(C)C1(CC=C)C(=O)N\C(=N/C1=O)[S-] (stereo unspecified) [THIAMYLAL SODIUM], the “IC50 of cell viability” value is reported as greater than 46 µM. With [Na+].CC1=C(C(=O)N[C@H]2[C@H]3SC(C)(C)[C@H]([N@]3C2=O)C([O-])=O)C(=NO1)C4=C(Cl)C=CC=C4 [Cloxacillin sodium salt] the “IC50 of cell viability” value was greater than 46 µM. In the case of Cc1cc2nc3ccc(N(C)C)cc3[s+]c2cc1N [Toluidine blue], the “IC50 of cell viability” value is reported as greater than 46 µM. O=C1CC2(CCCC2)CC(=O)N1CCNCC1COc2ccccc2O1 (stereo unspecified) was tested, and the “IC50 of cell viability” value was greater than 46 µM. For COC(=O)c1cccnc1 [METHYL NICOTINATE], the “IC50 of cell viability” value was greater than 46 µM. For O=C1CN(/N=C/c2ccc([N+](=O)[O-])o2)C(=O)N1 [Nitrofurantoin], the “IC50 of cell viability” value was greater than 46 µM. With CN[C@H]1C[C@@H](N)[C@H](O)[C@@H](O[C@@H]2O[C@H](CO)[C@H](O)[C@@H]3O[C@]4(O[C@@H]23)O[C@H]([C@@H](N)CO)[C@H](O)[C@@H](O)[C@H]4O)[C@@H]1O [Hygromycin B] the “IC50 of cell viability” value was greater than 46 µM. For CCCC[S+](=O)([O-])N[C@@H](Cc1ccc(OCCCCC2CCNCC2)cc1)C(=O)O.Cl.O [Tirofiban], the “IC50 of cell viability” value was greater than 46 µM. With C[N@+]1([O-])[C@@H]2C[C@H](OC(=O)[C@@H](CO)c3ccccc3)C[C@@H]1[C@H]1O[C@H]12 [AMINOXYSCOPOLAMINE HYDROBROMIDE] the “IC50 of cell viability” value was greater than 46 µM. O=C(O)c1ccccc1O.Oc1cccc2cccnc12 [8-quinolinol and salicylic acid] was tested, and the “IC50 of cell viability” value was greater than 46 µM. For Cc1ncsc1CCCl [CHLORMETHIAZOLE], the “IC50 of cell viability” value was greater than 46 µM. With CCN(CC)CCOc1ccc(Cc2ccccc2)cc1 [N,N-DIETHYL-2-[4-(PHENYLMETHYL)PHENOXY]ETHANAMINE] the “IC50 of cell viability” value was greater than 46 µM. CNC(C)[C@@H](O)c1ccc(O)cc1 (stereo partly specified) [P-HYDROXYEPHEDRINE HYDROCHLORIDE] was tested, and the “IC50 of cell viability” value was greater than 46 µM. For CC(=O)NC(CCC(N)=O)C(=O)O [Na-Acetyl-L-glutamine], the “IC50 of cell viability” value was greater than 46 µM. For [Na+].[Na+].CC1(C)S[C@H]2[C@H](NC(=O)[C@H](C([O-])=O)C3=CSC=C3)C(=O)[N@]2[C@H]1C([O-])=O [Ticarcillin sodium], the “IC50 of cell viability” value was greater than 46 µM. In the case of Cc1ccnc2c1NC(=O)c1cccnc1N2C1CC1 [Nevirapine], the “IC50 of cell viability” value is reported as greater than 46 µM. In the case of Cc1ccc2c(Br)cc(Br)c(O)c2n1 [Broquinaldol], the “IC50 of cell viability” value is reported as greater than 46 µM. In the case of Cc1cc2c(C(C)C)c(O)c(O)c(C=O)c2c(O)c1-c1c(C)cc2c(C(C)C)c(O)c(O)c(C=O)c2c1O [Gossypol], the “IC50 of cell viability” value is reported as greater than 46 µM. In the case of Cc1ccc(C(C)C)c(O)c1 [Thymol], the “IC50 of cell viability” value is reported as greater than 46 µM. CN1C(=O)NC(=O)C(C)(C2=CCCCC2)C1=O (stereo unspecified) [Hexobarbital] was tested, and the “IC50 of cell viability” value was greater than 46 µM. Cc1ccccc1N1C(=O)c2cc([S+](N)(=O)[O-])c(Cl)cc2NC1C (stereo unspecified) [Metolazone] was tested, and the “IC50 of cell viability” value was greater than 46 µM. With COCCOC(=O)C1=C(C)NC(C)=C(C(=O)OC/C=C/c2ccccc2)C1c1cccc([N+](=O)[O-])c1 (stereo unspecified) [Cilnidipine] the “IC50 of cell viability” value was greater than 46 µM. With COc1ccc(CCNC[C@@H](O)c2ccc(O)cc2)cc1OC [R(-)-Denopamine] the “IC50 of cell viability” value was greater than 46 µM. In the case of CCOC(=O)CN[C@@H](C(=O)N1CC[C@H]1C(=O)NCc1ccc(/C(N)=N/O)cc1)C1CCCCC1 [Ximelagatran], the “IC50 of cell viability” value is reported as greater than 46 µM. For Nc1c2c(nc3ccccc13)CCCC2O (stereo unspecified) [HYDROXYTACRINE], the “IC50 of cell viability” value was greater than 46 µM. CN1C(=O)C[C@@H](C(=O)N[C@@H](Cc2c[nH]cn2)C(=O)N2CCC[C@H]2C(N)=O)NC1=O [TALTIRELIN HYDRATE] was tested, and the “IC50 of cell viability” value was greater than 46 µM. In the case of CC(C)(C)NC[C@H](O)c1ccc(O)cc1Cl [MELUADRINE TARTRATE], the “IC50 of cell viability” value is reported as greater than 46 µM. NC(=O)C1=CC=[N+](C\C2=C(\[N@]3[C@@H](SC2)[C@H](NC(=O)CC4=CC=CS4)C3=O)C([O-])=O)C=C1 [Cefalonium] was tested, and the “IC50 of cell viability” value was greater than 46 µM. CC(=O)Nc1ccc(OC(=O)c2ccccc2OC(C)=O)cc1 [BENORILATE] was tested, and the “IC50 of cell viability” value was greater than 46 µM. Cc1cc(CC(=O)[O-])n(C)c1C(=O)c1ccc(Cl)cc1 [Sodium zomepirac] was tested, and the “IC50 of cell viability” value was greater than 46 µM. C[N+]1(C)CCC(=C(c2ccccc2)c2ccccc2)CC1 [Diphemanil methylsulfate] was tested, and the “IC50 of cell viability” value was greater than 46 µM. With CC(=O)O[C@@]12CO[C@@H]1C[C@H](O)[C@]3(C)[C@@H]2[C@H](OC(=O)C4=CC=CC=C4)[C@]5(O)C[C@H](OC(=O)C(O)[C@@H](NC(=O)OC(C)(C)C)C6=CC=CC=C6)C(=C(/[C@@H](O)C3=O)C5(C)C)/C (stereo partly specified) [Docetaxel] the “IC50 of cell viability” value was greater than 46 µM. O=C(OCC1(COC(=O)c2cccnc2)CCCC(COC(=O)c2cccnc2)(COC(=O)c2cccnc2)C1O)c1cccnc1 [Nicomolol] was tested, and the “IC50 of cell viability” value was greater than 46 µM. In the case of [Na+].CC(=O)OC\C1=C(\[N@]2[C@@H](SC1)[C@H](NC(=O)CSC3=CC=NC=C3)C2=O)C([O-])=O [Cephapirin sodium salt], the “IC50 of cell viability” value is reported as greater than 46 µM. With CC12CCC3C(CC\C4=C(/O)C(=O)CCC34C)C1CCC2=O (stereo unspecified) [4-Androsten-4-ol-3,17-dione] the “IC50 of cell viability” value was greater than 46 µM. With CN1CCC(CC1)=C2C3=C(C=CC=C3)\C=C/C4=C2C=CC=C4 [CYPROHEPTADINE] the “IC50 of cell viability” value was greater than 46 µM. In the case of C=CC1=C(C)c2cc3[nH]c(cc4nc(cc5[nH]c(cc1n2)c(C)c5CCC(=O)[O-])C(CCC(=O)[O-])=C4C)c(C)c3C=C [PROTOPORPHYRIN DISODIUM], the “IC50 of cell viability” value is reported as greater than 46 µM. With CN(C)CCCN1c2ccccc2CCc2ccc(Cl)cc21 [CLOMIPRAMINE] the “IC50 of cell viability” value was greater than 46 µM. For CCN(CC)CCOC(=O)C(O)(c1ccccc1)c1ccccc1 [BENACTYZINUM], the “IC50 of cell viability” value was greater than 46 µM. N[C@@H](Cc1ccc(O)c(O)c1)C(=O)O [L-3,4-DIHYDROXYPHENYL-ALANINE] was tested, and the “IC50 of cell viability” value was greater than 46 µM. For O=C(O)COc1ccc(CCN[S+](=O)([O-])c2ccccc2)s1 [LINOTROBANUM], the “IC50 of cell viability” value was greater than 46 µM. In the case of CCC1Nc2cc(Cl)c([S+](N)(=O)[O-])cc2[S+](=O)([O-])N1 (stereo unspecified) [Ethiazide], the “IC50 of cell viability” value is reported as greater than 46 µM. For CC12CCC3c4ccc(O)cc4CCC3C1CCC2=O (stereo unspecified) [oestrone], the “IC50 of cell viability” value was greater than 46 µM. With COc1ccc2c(c1)c(CC(=O)O)c(C)n2C(=O)c1ccc(Cl)cc1 [Indometacin] the “IC50 of cell viability” value was greater than 46 µM. CC(C)NC[C@@H](O)COc1cccc2ccccc12 [R-(+)-PROPRANOLOL] was tested, and the “IC50 of cell viability” value was greater than 46 µM. For N=C(N)NCCCC(NC(=O)C1CCCN1C(=O)C1CSSCC(N)C(=O)NC(Cc2ccc(O)cc2)C(=O)NC(Cc2ccccc2)C(=O)NC(CCC(N)=O)C(=O)NC(CC(N)=O)C(=O)N1)C(=O)NCC(N)=O (stereo unspecified) [[8-Arginine]vasopressin], the “IC50 of cell viability” value was greater than 46 µM. CN1C[C@@H]2c3ccccc3Oc3ccc(Cl)cc3[C@H]2C1 [Asenapine] was tested, and the “IC50 of cell viability” value was greater than 46 µM. In the case of Cc1ccc(NC(=O)c2ccc(CN3CCN(C)CC3)cc2)cc1Nc1nccc(-c2cccnc2)n1 [IMATINIB MESYLATE], the “IC50 of cell viability” value is reported as greater than 46 µM. O=C(O)CCCOc1ccc(Cl)cc1Cl [4-(2,4-Dichlorophenoxy)butyric acid] was tested, and the “IC50 of cell viability” value was greater than 46 µM. With CC(=O)N[C@@H]1CCSC1=O (racemic) [N-Acetyl-DL-homocysteine Thiolactone] the “IC50 of cell viability” value was greater than 46 µM. For CC(=O)OC1=CC=C(C=C1)C(=C2/CCCCC2)\C3=CC=C(OC(C)=O)C=C3 [CYCLOFENIL], the “IC50 of cell viability” value was greater than 46 µM. [Na+].C[C@]12CC[C@H]3[C@@H](C\C=C/4C[C@H](CC[C@]34C)O[S]([O-])(=O)=O)[C@@H]1CCC2=O [Dehydroisoandrosterone 3-sulfate sodium] was tested, and the “IC50 of cell viability” value was greater than 46 µM. For CCC(C(=O)OCCOCCN(CC)CC)c1ccccc1 (stereo unspecified) [Butamirate citrate], the “IC50 of cell viability” value was greater than 46 µM.

From the supplement of paper PMC3974653
